Laboratory results reported in patent US20260174875A1 (Novo Nordisk A/S, priority 2023, published 2026).
Read-outs that look alike come from different tables or passages of the source. Numbered stars: 1 amine (or outer) side, 2 acyl side, 3 side chain; on linkers, the order of the positions; unused ones are H or OH. Square brackets hold non-standard residues; d marks the D form. Side chains are listed from the residue outwards. * marks the point of attachment. C20 diacid = O=C(O)CCCCCCCCCCCCCCCCCCC(=O)*; C18 diacid = O=C(O)CCCCCCCCCCCCCCCCC(=O)*; C16 diacid = O=C(O)CCCCCCCCCCCCCCC(=O)*; γGlu = O=C(O)[C@H](CCC(=O)[*:2])N[*:1]; AEEA = NCCOCCOCC(=O)O; Aib = CC(C)(N)C(=O)O

Tests used:
Format in all cases: cell-based
[1] = target: T1, human GLP-1 receptor (hGLP-1R) (Homo sapiens, UniProt P43220); test: GLP-1 receptor assay, method A (CRE-luciferase reporter, BHK cells)
T1 construct: expressed in transfected cells
Protocol: (§1) To assess how the activation of the receptors is potentially influenced by the presence of human serum albumin (HSA), the in vitro assays were performed in the absence of HSA and presence of 1% (w/v) HSA.
Cells at approximately 80-90% confluence were washed once in PBS (Gibco 14190-094) and loosened from the cell flasks with Versene (Gibco, 15040-033). […] Cells were aliquoted and stored at −180° C. until use.
(§2) The assay buffer consisted of DMEM without phenol red (Gibco, 11880-028) supplemented with 1× GlutaMAX (Gibco, 35050-038), 10 mM HEPES (Gibco, 15630-056), 1% (w/v) ovalbumin (Sigma, A5503) and 0.1% (v/v) Pluronic F-68 (Gibco, 24040-032) either with HSA or without HSA (Sigma, A9511).
Frozen stocks of hGLP-1R BHK CRE-Luc cells were thawed in a 37° C. water bath, washed once in PBS (Gibco 14190-094) and diluted to 1.5×10^6 (1.5E+6) cells/mL in assay buffer with or without 2% (w/v) HSA (Sigma, A9511). […] The assay plates were incubated for 3 hours at 37° C. in 5% CO2, left at room temperature for 5 minutes after which 100 μL steadylite Plus™ (PerkinElmer/Revvity, 6066759) was added to each well. Plates were sealed and incubated at room temperature with gentle shaking for 30 minutes while protected from light. Luminescence was detected on a luminescence plate reader e.g., a Synergy 2 (BioTek).

[2] = target: T2, human amylin receptor (hAMYR3) (Homo sapiens, UniProt O60896+P30988); test: Amylin receptor assay, method A (CRE-luciferase reporter, BHK cells)
T2 construct: host or cells: BHK cells (Hollex-1 line expressing hCTR(a) and CRE-Luc), further transfected with human RAMP3
Protocol: as §1
It is thus possible to measure hAMYR3 activity using a CRE-luciferase reporter gene introduced into Baby Hamster Kidney (BHK) cells co-expressing the hAMYR3.
The cell line was further transfected with human receptor modifying protein 3 (RAMP3) using standard methods.
After centrifugation, the cell pellet was resuspended and diluted to approximately 2.5-4.0×10^6 (2.5E+6 to 4.0E+6) cells/mL in Recovery™ Cell Culture Freezing Medium (Gibco, 12648-010). Cells were aliquoted and stored at −180° C. until use.
as §2, with “15630-056) and” for “15630-056),”, “either with or without” for “and”, “24040-032) and” for “24040-032)”, “with” for “with HSA”
The plate was incubated over night at 37° C. in 5% CO2. […] Luminescence was detected on a luminescence plate reader e.g., a Synergy 2 (BioTek).

[3] = target: T3, human GIP receptor (hGIPR) (Homo sapiens, UniProt P48546); test: GIP receptor assay, method A (CRE-luciferase reporter, BHK cells)
T3 construct: expressed in transfected cells
T3 sequence (P48546 22-466): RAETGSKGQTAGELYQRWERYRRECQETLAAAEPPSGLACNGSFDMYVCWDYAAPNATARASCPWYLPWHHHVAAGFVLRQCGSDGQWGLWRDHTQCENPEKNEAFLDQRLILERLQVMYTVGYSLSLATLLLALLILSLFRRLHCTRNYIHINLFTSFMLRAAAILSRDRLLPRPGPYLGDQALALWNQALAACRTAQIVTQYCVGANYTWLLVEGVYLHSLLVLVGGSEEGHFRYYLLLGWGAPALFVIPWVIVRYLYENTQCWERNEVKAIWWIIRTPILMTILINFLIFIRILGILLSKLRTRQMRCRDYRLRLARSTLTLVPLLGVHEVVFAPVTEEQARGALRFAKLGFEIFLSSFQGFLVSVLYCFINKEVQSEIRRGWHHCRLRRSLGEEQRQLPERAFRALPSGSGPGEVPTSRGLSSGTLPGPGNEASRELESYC
Protocol: To assess how the activation of the receptors is potentially influenced by the presence of human serum albumin (HSA), the in vitro assays were performed in the absence of HSA and presence of 1% (w/v) HSA. Unless stated otherwise the reference to the “GIP receptor assay as described in Example 4” throughout the specification shall refer to the described herein assay procedure method A (hGIPR assay) in the absence of HSA.
Activation of the human GIP receptor leads to increased intra-cellular concentrations of cyclic AMP (cAMP) and the consequent transcription activation from promoters containing multiple copies of the cAMP response element (CRE). It is thus possible to measure GIP receptor activity using a CRE-luciferase reporter gene introduced into Baby Hamster Kidney (BHK) cells co-expressing the human GIP receptor.
Cells at about 80-90% confluency were washed once with PBS (Gibco 14190-094) and detached from the cell flasks with Versene (Gibco, 15040-066). After centrifugation, the cells were counted, resuspended and diluted to approximately 1.5-3.0×10^6 (1.5E+6 to 3.0E+6) cells/mL in Recovery Cell Culture Freezing Medium (Gibco, 12648-010) and stored at −180° C. in suitable aliquots until use.
as §2
On the day before the assay hGIPR BHK Cre-Luc cells were thawed and plated out in 96 well Culture Plates (PerkinElmer/Revvity, 6005680) at 5.0×10^3 (5.0E+3) cells/well in growth medium as described above. The plates were then incubated for 21-23 hours at 37° C. with 5% CO2. On the day of the assay GLP-1-/GIP-/amylin-receptor tri-agonists or reference compounds were diluted in assay buffer using a 7-point, 10-fold titration plus a blank (absence of compound). Each compound was diluted and tested in duplicates in each experiment. In the plates containing the cells the growth medium was removed, and cells were washed twice with 100 μL PBS (Gibco 14190-094). 50 μL of the test compound dilutions were added to the plates containing cells preceded by 50 μL assay buffer with or without 2% (w/v) HSA (Sigma, A9511). The cell plates were incubated for 3 hours in a 5% CO2 incubator at 37° C. The plates were then transferred to room temperature followed by addition of 100 μL steadylite Plus™ (PerkinElmer/Revvity, 6066759). The plates were sealed and shaken for 30 minutes at room temperature while protected from light. Finally, luminescence (as an indicator of receptor activation) was measured on a Mithras reader (Berthold Technologies, DE). The EC50-values [pM] were calculated by non-linear curve fitting applying a four-parameter logistic model (Hill slope=“shared value for all datasets”) using GraphPad Prism (GraphPad Software, Boston, MA, USA).

[4] = hGLP-1R Potency, 1% HSA, EC50, method A, in the presence of 1% HSA
[5] = method A, absence of HSA, read-out: hGLP-1R Potency, no HSA, EC50
[6] = hAMYR3 Potency, 1% HSA, EC50, method A, in the presence of 1% HSA
[7] = method A, absence of HSA, read-out: hAMYR3 Potency, no HSA, EC50
[8] = hGIPR Potency, 1% HSA, EC50, method A, in the presence of 1% HSA
[9] = method A, absence of HSA, read-out: hGIPR Potency, no HSA, EC50

T1 sequence (P43220 24-463): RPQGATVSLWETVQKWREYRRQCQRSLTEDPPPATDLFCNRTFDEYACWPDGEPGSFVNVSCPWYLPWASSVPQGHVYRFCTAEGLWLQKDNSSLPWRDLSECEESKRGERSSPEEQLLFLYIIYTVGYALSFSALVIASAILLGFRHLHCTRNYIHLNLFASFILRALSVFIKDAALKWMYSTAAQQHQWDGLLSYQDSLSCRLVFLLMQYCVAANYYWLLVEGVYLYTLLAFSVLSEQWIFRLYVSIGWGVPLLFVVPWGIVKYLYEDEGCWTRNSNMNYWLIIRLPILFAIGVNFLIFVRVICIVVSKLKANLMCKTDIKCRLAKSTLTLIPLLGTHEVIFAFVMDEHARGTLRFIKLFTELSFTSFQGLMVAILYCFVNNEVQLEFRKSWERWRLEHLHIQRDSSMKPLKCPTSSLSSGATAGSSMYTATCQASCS
T2 sequence (P30988 25-474): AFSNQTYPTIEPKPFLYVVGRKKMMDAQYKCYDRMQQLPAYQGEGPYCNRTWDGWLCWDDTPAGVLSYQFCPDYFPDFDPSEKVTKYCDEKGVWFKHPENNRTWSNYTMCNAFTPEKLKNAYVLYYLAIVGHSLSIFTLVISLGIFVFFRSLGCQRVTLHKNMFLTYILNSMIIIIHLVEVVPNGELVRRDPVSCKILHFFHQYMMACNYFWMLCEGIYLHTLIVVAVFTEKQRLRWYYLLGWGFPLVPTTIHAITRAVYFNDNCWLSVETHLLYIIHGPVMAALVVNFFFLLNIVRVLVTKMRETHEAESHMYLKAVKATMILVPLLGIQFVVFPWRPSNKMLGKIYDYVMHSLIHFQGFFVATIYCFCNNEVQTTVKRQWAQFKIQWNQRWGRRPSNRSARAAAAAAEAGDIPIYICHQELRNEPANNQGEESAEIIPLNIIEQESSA
T2 sequence (O60896 24-148): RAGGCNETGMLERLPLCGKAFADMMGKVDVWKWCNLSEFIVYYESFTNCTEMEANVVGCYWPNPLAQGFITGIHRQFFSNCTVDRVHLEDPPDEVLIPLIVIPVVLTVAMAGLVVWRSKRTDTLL

| Substance | EC50 [1, 4] [nM] | EC50 [1, 5] [nM] | EC50 [2, 6] [nM] | EC50 [2, 7] [nM] | EC50 [3, 8] [nM] | EC50 [3, 9] [nM] |
| --- | --- | --- | --- | --- | --- | --- |
| H[Aib]HGTFTSDYSILLEEQAAREFIEWLLAGGPSSGALQAPGQAPLASHLSTAQTARLSAELHK([AEEA-AEEA-γGlu-C18 diacid])LATLPRTETGSGSP-NH2 [Compound 108] | 0.015 | 0.00457 | 0.0599 | 0.00248 | 0.0115 | 0.00401 |
| H[Aib]HGTFTSDYSILLEEQAAREFIEWLLAGGPSSGEASHLSTAALGRLSAELHK([AEEA-AEEA-γGlu-C18 diacid])LATLPRTETGSGSP-NH2 [Compound 88] | 0.0488 | 0.00412 | 0.102 | 0.0037 | 0.0404 | 0.00568 |
| H[Aib]HGTFTSDYSILLEEQAAREFIEWLLAGGPSSGEASHLSTAALGRLSAELHRLATLPK([AEEA-AEEA-γGlu-C18 diacid])TETGSGSP-NH2 [Compound 90] | 0.0386 | 0.00416 | 0.183 | 0.00545 | 0.0325 | 0.0054 |
| Y[Aib]EGTFTSDYSILLEEQAAREFIEWLLAGGPSGGEASHLSTAQTQRLSAELHK([AEEA-AEEA-γGlu-C18 diacid])LATLPRTETGSGSP-NH2 [Compound 74] | 0.141 | 0.0298 | 0.134 | 0.00273 | 0.0187 | 0.00251 |
| Y[Aib]EGTFTSDYSILLEEQAAREFIEWLLAGGPSGGGGEASHLSTAQTQRLSAELHK([AEEA-AEEA-γGlu-C20 diacid])LATLPRTETGSGSP-NH2 [Compound 96] | 0.162 | 0.0168 | 0.595 | 0.00373 | 0.03 | 0.00362 |
| Y[Aib]EGTFTSDYSILLEEQAAREFIEWLLAGGPSK([AEEA-AEEA-γGlu-C16 diacid])GASELSTAALGRLSAELHRLATLPRTETGSGSP-NH2 [Compound 20] |  | 0.0406 |  | 0.00365 |  | 0.00482 |
| Y[Aib]EGTFTSDYSILLEEQAAREFIEWLLAGGPSK([AEEA-AEEA-γGlu-C18 diacid])GAEASELSTAALGRLSAELHELATLPRTETGSGSP-NH2 [Compound 32] |  | 0.0276 |  | 0.0101 |  | 0.00809 |
| Y[Aib]EGTFTSDYSILLEEQAAREFIEWLLAGGPSK([AEEA-AEEA-γGlu-C18 diacid])GALAQTLAQTLASELSTAALGRLSAELHELATLPRTETGSGSP-NH2 [Compound 21] |  | 0.0412 |  | 0.012 |  | 0.00863 |
| Y[Aib]EGTFTSDYSILLEEQAAREFIEWLLAGGPSK([AEEA-AEEA-γGlu-C18 diacid])GALAQTLFVNQASELSTAALGRLSAELHELATLPRTETGSGSP-NH2 [Compound 24] |  | 0.0515 |  | 0.00424 |  | 0.00234 |
